# Test results taken from PMC7968666, “The pharmacokinetics and drug-drug interactions of ivermectin in Aedes aegypti mosquitoes” (PLoS Pathogens, 2021).
# Where “and” joins values, the source holds several entries; their conditions need not be identical. Equal entries are not always repeated. Entries after “also recorded” stand apart in the source; their conditions may differ.
# Tests used:
# Anopheles mosquitoes = conditions: cited from earlier work
# Ae. aegypti = system: Ae. aegypti; design: method as in PMID 20540931; conditions: single oral dose of 150 μg/kg; cited from earlier work
# [1] = Pharmacokinetic and drug-drug interaction studies in blood-fed mosquitoes (concentration-time courses, population PK modelling); conditions: for Ivermectin concentration in single mosquito: IVM (0.1 µg/ml) in human blood, Batch 4, individual mosquitoes, listed as IVM
# [2] = ivermectin 0.1 μg/ml plus ritonavir 10 μg/ml in blood
# [3] = non-parametric bootstrap analysis (n = 1’000)
compound,measurement,setting,value
CCC(C)C1OC2(CCC1C)CC1CC(CC=C(C)C(OC3CC(OC)C(OC4CC(OC)C(O)C(C)O4)C(C)O3)C(C)C=CC=C3COC4C(O)C(C)=CC(C(=O)O1)C34O)O2 (stereo not drawn) [ivermectin],Lethal concentration for Anopheles mosquitoes,Anopheles mosquitoes,low nanomolar range
same,Host blood concentration relative to LD50 against Ae. aegypti,Ae. aegypti,≤ 10 % of the LD50
same,zero-order elimination rate,"[1]; 0.1 μg/ml ivermectin in blood, pharmacometric modelling",5.5 pg/h
same,Course / extent of elimination from the mosquitoes,"[1]; IVM 0.1, KCZ 5, RIF 10, PBO 10 μg/ml in blood, up to 72 h",after 72 h only traces of ivermectin were still detectable
same,Type of elimination kinetics in the mosquito,"[1]; IVM 0.1, KCZ 5, RIF 10, RTV 10, PBO 10 μg/ml in blood",zero-order elimination; also recorded: zero-order kinetics
same,Ivermectin concentration in single mosquito,[1]; 0 h post feeding,0.079 ng/mg msq (2×) and 0.077 ng/mg msq (2×) and 0.075 ng/mg msq and 0.084 ng/mg msq (2×) and 0.087 ng/mg msq and 0.089 ng/mg msq (2×) and 0.085 ng/mg msq and 0.088 ng/mg msq and 0.078 ng/mg msq (2×) and 0.083 ng/mg msq (4×) and 0.062 ng/mg msq and 0.074 ng/mg msq
same,Ivermectin concentration in single mosquito,[1]; 6 h post feeding,0.100 ng/mg msq (2×) and 0.086 ng/mg msq (2×) and 0.098 ng/mg msq and 0.092 ng/mg msq (2×) and 0.079 ng/mg msq and 0.085 ng/mg msq and 0.104 ng/mg msq and 0.082 ng/mg msq and 0.094 ng/mg msq and 0.083 ng/mg msq and 0.103 ng/mg msq (2×) and 0.160 ng/mg msq and 0.148 ng/mg msq and 0.096 ng/mg msq and 0.111 ng/mg msq and 0.113 ng/mg msq
same,Ivermectin concentration in single mosquito,[1]; 12 h post feeding,0.073 ng/mg msq and 0.065 ng/mg msq and 0.093 ng/mg msq (2×) and 0.095 ng/mg msq (2×) and 0.090 ng/mg msq (3×) and 0.085 ng/mg msq (2×) and 0.063 ng/mg msq and 0.087 ng/mg msq and 0.077 ng/mg msq and 0.104 ng/mg msq and 0.116 ng/mg msq and 0.103 ng/mg msq and 0.086 ng/mg msq and 0.098 ng/mg msq and 0.124 ng/mg msq
same,Ivermectin concentration in single mosquito,[1]; 24 h post feeding,0.073 ng/mg msq (2×) and 0.070 ng/mg msq (2×) and 0.074 ng/mg msq and 0.068 ng/mg msq and 0.090 ng/mg msq and 0.064 ng/mg msq (3×) and 0.067 ng/mg msq and 0.078 ng/mg msq and 0.055 ng/mg msq and 0.062 ng/mg msq and 0.058 ng/mg msq and 0.072 ng/mg msq and 0.056 ng/mg msq (2×) and 0.084 ng/mg msq and 0.057 ng/mg msq
same,Ivermectin concentration in single mosquito,[1]; 36 h post feeding,0.068 ng/mg msq (3×) and 0.044 ng/mg msq and 0.052 ng/mg msq and 0.090 ng/mg msq and 0.039 ng/mg msq and 0.038 ng/mg msq and 0.056 ng/mg msq and 0.053 ng/mg msq and 0.071 ng/mg msq and 0.060 ng/mg msq (2×) and 0.050 ng/mg msq and 0.036 ng/mg msq and 0.051 ng/mg msq and 0.062 ng/mg msq and 0.043 ng/mg msq and 0.037 ng/mg msq and 0.073 ng/mg msq
same,"IOV dose (inter-occasion variability), estimate",[1]; final population PK model,0.11
same,"Inter-individual variability (ω) of dose, estimate",[1]; final population PK model,0.075
same,"Inter-individual variability (ω) of kel, estimate",[1]; final population PK model,0.25
same,"kel (zero-order elimination rate), estimate","[1]; final population PK model, 0.1 μg/ml ivermectin in blood",0.0055 ng/h
same,"dose (amount absorbed from the blood meal), estimate","[1]; final population PK model, 0.1 μg/ml ivermectin in blood, median mosquito weight 3.4 mg",0.28 ng
same,"Amount of ivermectin imbibed per feeding, mean ± SD","[1]; human blood spiked with 0.1 μg/ml ivermectin, four batches",0.36 ± 0.06 ng
same,Effect of ritonavir on the elimination rate of ivermectin,[1]; [2],not affected
same,Increase of ivermectin exposure (AUC) compared to ivermectin alone,[1]; [2],29%
same,"IOV dose, bootstrap median",[1]; [3],0.11
same,"Inter-individual variability (ω) of dose, bootstrap median",[1]; [3],0.075
same,"Inter-individual variability (ω) of kel, bootstrap median",[1]; [3],0.25
same,"Tlag, bootstrap median",[1]; [3],18.5 h
same,"dose, bootstrap median",[1]; [3],0.28 ng
same,"Tlag_add_rit, bootstrap median","[1]; non-parametric bootstrap analysis (n = 1’000), ritonavir co-treatment",11.4 h
